What was measured:
[1] = Acute toxicity, lethal dose 50 after oral and intravenous administration; type: in vivo, souris; details: mouse; for DL 50 I.V.: intravenous administration; for DL 50 P.O.: oral administration
Text: Les doses létales 50 suivantes ont été obtenues après administration orale (P.O.) et intraveineuse (I.V.) des substances chez la souris.
Les résultats obtenus sont consignés dans le tableau I. TABLEAU I

[2] = system: canal déférent isolé du rat; test: In vitro α-adrenolytic activity: antagonism of noradrenaline contractions of isolated rat vas deferens; type: cell-based
Text: (§1) Elle a été étudiée sur le canal déférent du rat et sur l'urètre du lapin.
(§2) La noradrénaline provoque des contractions du canal déférent isolé du rat et de l'urètre isolé du lapin. La présence dans le bain de l'organe de substances α-bloquantes antagonise ces contractions : l'utilisation de concentrations croissantes de substances α-bloquantes permet de calculer : • la pA₂ des composés sur le canal déférent du rat; la pA₂ étant le logarithme changé de signe de la concentration molaire du produit en présence de laquelle il faut multiplier par deux la concentration de noradrénaline pour obtenir le même effet qu'en l'absence du produit; • la pD'₂ des composés sur l'urètre du lapin; la pd'₂ étant le logarithme changé de signe de la concentration molaire du produit en présence de laquelle l'activité contracturante de la noradrénaline est divisée par deux.

urètre isolé du lapin = test: In vitro α-adrenolytic activity: antagonism of noradrenaline contractions of isolated rabbit urethra; type: cell-based
Text: as §1, §2

[3] = system: toxicité de la noradrénaline; test: In vivo adrenolytic activity: protection against death caused by i.v. noradrenaline; details: rat, 30 min before noradrenaline 0,4 mg/kg⁻¹ I.V.
Experimental: La noradrénaline injectée à fortes doses par voie intraveineuse provoque la mort de 100 % des animaux dans les 15 minutes qui suivent son injection. La mort survient par oedème pulmonaire dû à l'hypertension artérielle induite par la stimulation des récepteurs adrénergiques. L'administration préalable de substances α-adrénolytiques par voie orale permet de réduire la toxicité de la noradrénaline. Les produits sont administrés par voie orale à des temps variables entre 30 minutes et 6 heures avant l'injection intraveineuse (I.V.) de noradrénaline (0,4 mg/kg⁻¹).

[4] = system: pressions artérielle et urétrale; test: In vivo α-blocking activity at urethral and vascular level: noradrenaline-induced rise of arterial and urethral pressure in the anaesthetised rabbit; design: species or system lapin; details: product i.v.
Text: L'activité α-bloquante "in vivo" aux niveaux urétral et vasculaire chez le lapin anesthésié a été recherchée par administration intraveineuse des produits B 1007, B 1024, B 1058, B 1125 et B 1134.
L'injection intraveineuse de noradrénaline provoque chez le lapin une augmentation dose dépendante des pressions artérielle et urétrale. Les substances α-bloquantes injectées par voie intraveineuse antagonisent en fonction des doses ces augmentations de pression. On calcule la dose inhibitrice 50 % (D.I. 50) définie comme étant la dose de produit provoquant une diminution de 50 % des effets de la noradrénaline sur les pressions artérielle et urétrale.

[5] = system: hyperpression urétrale neurogène et pression artérielle; test: Urethral specificity in the anaesthetised dog: neurogenic urethral hyperpressure (hypogastric nerve stimulation) and arterial pressure; type: in vivo, chien; details: product i.v.; for Hypotension artérielle DE. 20: dose causing 20 % arterial hypotension; for Hyperpression urétrale neurogène DI. 50: electrical stimulation of the hypogastric nerve
Text: L'effet des produits B 1007, B 1024, B 1125 et B 1134, injectés par voie intraveineuse sur l'hyperpression urétrale neurogène et sur la pression artérielle, a été recherché chez le chien anesthésié.
La stimulation électrique du nerf hypogastrique provoque une augmentation de la pression urétrale par libération de noradrénaline à partir des fibres sympathiques du nerf.
Les substances α-bloquantes antagonisent en fonction des doses ces augmentations de pression urétrale et provoquent une hypotension artérielle par action bloquante au niveau des récepteurs vasculaires.
On calcule la dose qui inhibe de 50 % (DI. 50) les effets de la stimulation du nerf hypogastrique sur la pression urétrale et la dose qui provoque une hypotension artérielle de 20 % (DE. 20).

## Cc1cc(OCCN2CCCC2)c(C(C)C)cc1O.Cl [B 1058, chlorhydratede l'hydroxy-2[(pyrrolidinyl-1)-2-éthoxy]-5 p-cymène]
[1]
  DL 50 I.V.: 17 mg/kg⁻¹
  DL 50 P.O.: 80 mg/kg⁻¹
[2]
  Action α-bloquante vis-à-vis de la noradrénaline sur canal déférent isolé pA₂: 7,18
urètre isolé du lapin
  Action α-bloquante vis-à-vis de la noradrénaline sur urètre isolé pD'₂: 6,69
[3]; 50 mg/kg⁻¹ p.o.
  % de protection contre la mort: 90%
[4]
  D.I. 50 vis-à-vis de l'hypertension artérielle: 1,22 mg/kg⁻¹
  D.I. 50 vis-à-vis de l'hypertension urétrale: 0,13 mg/kg⁻¹

## CC(=O)Oc1cc(C(C)C)c(OCCN(C)C)cc1C [Thymoxamine, reference compound]
[1]
  DL 50 I.V.: 72,5 mg/kg⁻¹
  DL 50 P.O.: 300 mg/kg⁻¹
[2]
  Action α-bloquante vis-à-vis de la noradrénaline sur canal déférent isolé pA₂: 7,25
urètre isolé du lapin
  Action α-bloquante vis-à-vis de la noradrénaline sur urètre isolé pD'₂: 7,03
[3]; 50 mg/kg⁻¹ p.o.
  % de protection contre la mort: 80%
[4]
  D.I. 50 vis-à-vis de l'hypertension artérielle: 2,72 mg/kg⁻¹
  D.I. 50 vis-à-vis de l'hypertension urétrale: 0,5 mg/kg⁻¹
[5]
  Hypotension artérielle DE. 20: 0,27 mg/kg⁻¹
  Hyperpression urétrale neurogène DI. 50: 0,09 mg/kg⁻¹

## CCCC(=O)Oc1cc(C(C)C)c(OCCN2CCCC2)cc1C.Cl [B 1132, chlorhydrate du butyryloxy-2[(pyrrolidinyl1)-2-éthoxy]-5 p-cymène]
[1]
  DL 50 P.O.: ≃ 500 mg/kg⁻¹
[2]
  Action α-bloquante vis-à-vis de la noradrénaline sur canal déférent isolé pA₂: 7,35
urètre isolé du lapin
  Action α-bloquante vis-à-vis de la noradrénaline sur urètre isolé pD'₂: 6,0
[3]; 50 mg/kg⁻¹ p.o.
  % de protection contre la mort: 90%

## CC(=O)Oc1cc(C(C)C)c(OCCN2CCCC2)cc1C.Cl [B 1024, chlorhydratede l'acétoxy-2[(pyrrolidinyl-1)-2-éthoxy]-5 p-cymène]
[1]
  DL 50 I.V.: 18 mg/kg⁻¹
  DL 50 P.O.: 100 mg/kg⁻¹
[2]
  Action α-bloquante vis-à-vis de la noradrénaline sur canal déférent isolé pA₂: 6,98
urètre isolé du lapin
  Action α-bloquante vis-à-vis de la noradrénaline sur urètre isolé pD'₂: 6,38
[3]; 25 mg/kg⁻¹ p.o.
  % de protection contre la mort: 70%
[4]
  D.I. 50 vis-à-vis de l'hypertension artérielle: 4,14 mg/kg⁻¹
  D.I. 50 vis-à-vis de l'hypertension urétrale: 0,23 mg/kg⁻¹
[5]
  Hypotension artérielle DE. 20: 8 mg/kg⁻¹
  Hyperpression urétrale neurogène DI. 50: 0,07 mg/kg⁻¹

## Cc1ccc(C(C)C)c(OCCN2CCCC2)c1.Cl [B 1007, chlorhydrate du [(pyrrolidinyl-1)-2-éthoxy]-3 p-cymène]
[1]
  DL 50 I.V.: 75 mg/kg⁻¹
  DL 50 P.O.: 330 mg/kg⁻¹
[2]
  Action α-bloquante vis-à-vis de la noradrénaline sur canal déférent isolé pA₂: 6,74
urètre isolé du lapin
  Action α-bloquante vis-à-vis de la noradrénaline sur urètre isolé pD'₂: 6,88
[3]; 50 mg/kg⁻¹ p.o.
  % de protection contre la mort: 60%
[4]
  D.I. 50 vis-à-vis de l'hypertension artérielle: 7,63 mg/kg⁻¹
  D.I. 50 vis-à-vis de l'hypertension urétrale: 0,34 mg/kg⁻¹
[5]
  Hypotension artérielle DE. 20: 2 mg/kg⁻¹
  Hyperpression urétrale neurogène DI. 50: 0,35 mg/kg⁻¹

Source: patent EP0288647B1, “Derivatives of 5-[2-(1-pyrrolidinyl)ethoxy]-p-cymene, process for their preparation, and medicaments containing these derivatives” (INSTITUT DE RECHERCHES CHIMIQUES ET BIOLOGIQUES APPLIQUEES …, priority 1987, dated 1988)
